Results: patent US20080312317A1 (Eisai R&D Management Co., Ltd., priority 2007, published 2008)

Tests used:
Format in all cases: cell-based
[1] = system: MIApaca2 human pancreatic cancer cell; test: Proliferation inhibitory effect, Cell Titer-Glo viability assay, MIApaca2; settings: MIA PaCa-2, 72 h, 3 days culture with compound, luciferase viability readout, read-out: IC50, concentration for 50% inhibition of cell growth
Description: (§1) WiDr human colon cancer cells cultured in RPMI1640 medium containing 10% fetal bovine serum, penicillin (100 unit/ml) and streptomycin (100 μg/ml) (SIGMA product) were seeded into a 96-well plate by 2×10^3 cells/90 μl/well. After culturing the cells overnight in a CO2 incubator, 10 μl of the compound (P15) which is diluted in series in 3-folds was added in each well above, and cultured for another 3 days. Then, 50 μl of Cell Titer-Glo Luminescent Cell Viability Assay (Promega product) was added thereto, cells were shaken for 2 minutes and allowed to stand for 15 minutes to allow reaction. After completing the reaction, luciferase activity was measured using the luminometer. The thus obtained measurement value was given as an index for the number of living cells in each well.
(§2) The same experiment as above was carried out, except that WiDr human colon cancer cell was changed to U937 human leukemia cell, KP4 human pancreatic cancer cell, MIApaca2 human pancreatic cancer cell, MDA-MB231 human breast cancer cell, MDA-MB435 human breast cancer cell, DU145 human prostate cancer cell, PC9 human lung cancer cell and OVCAR3 human ovarian cancer, respectively. The concentration (IC50 values) of the compound (P15) required for 50% inhibition of each cancer cell was determined. […]

[2] = system: MDA-MB231 human breast cancer cell; test: Proliferation inhibitory effect, Cell Titer-Glo viability assay, MDA-MB231; settings: MDA-MB-231, 72 h, 3 days culture with compound, luciferase viability readout, read-out: IC50, concentration for 50% inhibition of cell growth
Description: as §1, §2

[3] = system: PC9 human lung cancer cell; test: Proliferation inhibitory effect, Cell Titer-Glo viability assay, PC9; settings: 72 h, 3 days culture with compound, luciferase viability readout, read-out: IC50, concentration for 50% inhibition of cell growth
Description: as §1, §2

[4] = system: MDA-MB435 human breast cancer cell; test: Proliferation inhibitory effect, Cell Titer-Glo viability assay, MDA-MB435; settings: MDA-MB-435, 72 h, 3 days culture with compound, luciferase viability readout, read-out: IC50, concentration for 50% inhibition of cell growth
Description: as §1, §2

[5] = system: KP4 human pancreatic cancer cell; test: Proliferation inhibitory effect, Cell Titer-Glo viability assay, KP4; settings: 72 h, 3 days culture with compound, luciferase viability readout, read-out: IC50, concentration for 50% inhibition of cell growth
Description: as §1, §2

[6] = system: WiDr human colon cancer cell; test: Proliferation inhibitory effect, Cell Titer-Glo viability assay, WiDr; settings: 72 h, 3 days culture with compound, luciferase viability readout, read-out: IC50, concentration for 50% inhibition of cell growth
Description: as §1
The same experiment as in Test Example 1 was carried out, except that the compound (P15) was changed to the compound (P16). The concentration (IC50 value) of the compound (P16) required for 50% inhibition of WiDr human colon cancer cell growth was determined.

U937 human leukemia cell = test: Proliferation inhibitory effect, Cell Titer-Glo viability assay, U937; settings: U-937, 72 h, 3 days culture with compound, luciferase viability readout, read-out: IC50, concentration for 50% inhibition of cell growth
Description: as §1, §2

[7] = system: DU145 human prostate cancer cell; test: Proliferation inhibitory effect, Cell Titer-Glo viability assay, DU145; settings: DU-145, 72 h, 3 days culture with compound, luciferase viability readout, read-out: IC50, concentration for 50% inhibition of cell growth
Description: as §1, §2

[8] = system: OVCAR3 human ovarian cancer; test: Proliferation inhibitory effect, Cell Titer-Glo viability assay, OVCAR3; settings: OVCAR-3, 72 h, 3 days culture with compound, luciferase viability readout, read-out: IC50, concentration for 50% inhibition of cell growth
Description: as §1, §2

Row | SMILES | IC50 [1] [nM] | IC50 [2] [nM] | IC50 [3] [nM] | IC50 [4] [nM] | IC50 [5] [nM] | IC50 [6] [nM] | IC50 (U937 human leukemia cell) [nM] | IC50 [7] [nM] | IC50 [8] [nM]
1 | CC[C@H](O)[C@@H](C)[C@H]1O[C@@H]1C[C@@](C)(O)/C=C/C=C(\C)[C@H]1NC(=O)CCCCCC(OC(C)=O)/C=C/[C@@H]1C (stereo partly drawn) [Compound P15, (2S,3S,4E)-2-((1E,3E,5R)-5-hydroxy-6-{(2R,3R)-3-[(1R,2S)-2-hydroxy-1-methylbutyl]oxiran-2-yl}-1,5-dimethylhexa-1,3-dien-1-yl)-3-methyl-12-oxoazacyclododec-4-en-6-yl acetate] | 500 | 470 | 1400 | 1700 | 1300 | 570 | 550 | 2300 | 430
2 | CC[C@H](O)[C@@H](C)[C@H]1O[C@@H]1C[C@H](C)/C=C/C=C(\C)[C@H]1NC(=O)CCCCCC(OC(C)=O)/C=C/[C@@H]1C (stereo partly drawn) [Compound P16] | 140 | 130 | 240 | 380 | 300 | 290 | 140 | 510 | 97
